Measured values as given in patent US20130224191A1, “NOTUM PROTEIN MODULATORS AND METHODS OF USE” (priority 2010, published 2013).

Molecular target: T1, Notum (Homo sapiens, UniProt Q6P988)
T1 sequence (Q6P988 20-496): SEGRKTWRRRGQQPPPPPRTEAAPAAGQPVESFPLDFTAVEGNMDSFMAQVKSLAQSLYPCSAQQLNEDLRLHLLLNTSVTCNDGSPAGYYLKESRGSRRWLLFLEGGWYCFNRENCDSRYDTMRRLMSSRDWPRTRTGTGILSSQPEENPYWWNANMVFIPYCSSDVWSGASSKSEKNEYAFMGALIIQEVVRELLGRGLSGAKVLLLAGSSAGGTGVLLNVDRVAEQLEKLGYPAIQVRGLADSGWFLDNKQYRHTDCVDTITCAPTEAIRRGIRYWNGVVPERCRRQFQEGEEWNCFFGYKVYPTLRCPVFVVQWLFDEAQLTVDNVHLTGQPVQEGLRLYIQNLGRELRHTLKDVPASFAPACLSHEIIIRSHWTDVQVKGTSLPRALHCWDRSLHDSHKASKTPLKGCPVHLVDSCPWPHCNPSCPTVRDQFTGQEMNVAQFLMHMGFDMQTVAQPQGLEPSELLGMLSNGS
Test: 4-MUH assay, small molecule inhibition of Notum
Assay type: biochemical
Conditions: 4-MUH 240 μM or 90 μM; orlistat 0-170 μM
Protocol: In addition to the assays described in Examples 23 and 24, a fluorescent esterase substrate, 4-methylumbelliferyl heptanoate (Sigma), can be used to measure the activity of hydrolases using standard assay conditions (Richardson and Smith, 2007, PMID: 17620441; Jacks and Kircher, 1967, PMID: 5582971). Briefly, 4-MUH was dissolved in DMSO to a final concentration of 1.2 mM. This substrate was diluted 1:10 into assay buffer (0.1M Tris, pH 7.5, 50 mM NaCl, 0.05% Brij) and incubated with defined amounts of Notum enzyme or point-mutated Notum enzymes, and enzymatic release of the fluorescent molecule 4-methylumbelliferone monitored (355 nm excitation, 460 nm emission) using a Wallac Victor3 Multilabel Counter (Perkin Elmer).
Consistent with a putative hydrolase activity for Notum, it could be hypothesized that this inactivation is related to the ability of Notum to delipidate Wnt3A. Two lipids are known to be linked to Wnt3A, a saturated palmitate chain at Cys77 and an unsaturated palmitoleoylic chain at S209 (Lorenowicz and Korswagen, 2009, PMID: 19559695). […] Therefore, the 4-MUH assay described in example 25 was performed in the presence of varying amounts of 4-MUH substrate (240 μM or 90 μM) and orlistat (0-170 μM).

Q: Which “inhibition of hydrolysis activity of Notum upon 4MUH” value does the source give for CCCCCCCCCCC[C@@H](C[C@@H]1OC(=O)[C@H]1CCCCCC)OC(=O)[C@H](CC(C)C)NC=O [orlistat] here?
A: The value was “inhibits the hydrolysis activity of Notum upon 4MUH in a dose-dependent fashion”.
